Measurements published in PubChem BioAssay AID2060483 (Molecular Pharmacology Branch, DTP, NCI, 2025).
Values joined by “and” are separate entries in the source; they are usually repeats but may differ in a detail not shown here. Identical values can stand only once.

System: K24384-001-R-PDC complex spheroids, viability
Assay: Anticancer human tumor K24384-001-R-PDC patient-derived pancreatic adenocarcinoma cell line growth inhibition [GQUAD]
Settings: for viability, T/C: stronger effect = lower value
From the text: DNA G-quadruplex Stabilizer Agents in Combinations in Complex Spheroids
A high-throughput screen of multi-cell type tumor spheroids was designed to identify active combinations of DNA G-quadruplex stabilizer agents and targeted small molecules. Complex spheroids include a stromal component modeled by human endothelial cells (HUVEC) and fibroblasts modeled by human mesenchymal stem cells (MSCs). The concentration ranges selected for each drug and investigational agent were based upon clinically achievable concentrations if the clinical Cmax of the agent was known.
Compounds. The drugs and investigational agents: pidnarulex (CX-5461; NSC782164), APTO-253 (NSC789042), BRACO-19 (NSC847499), peposertib (NSC802822), ceralasertib (NSC780249), elimusertib (NSC800525), camonsertib (NSC841442), AZD-1390 (NSC803789), olaparib (NSC753686), talazoparib (NSC767125), ART-558 (NSC835418), sotorasib (NSC818433), MRTX-1133 (NSC836407), SN-38 (NSC673596), topotecan (NSC609699), etoposide (NSC141540), doxorubicin (NSC123127), gemcitabine (NSC613327), 5-fluorouracil (NSC19893), paclitaxel (NSC125973), vemurafenib (NSC761431), panobinostat (NSC761190), R-306465 (JNJ-16241199; NSC773264), adavosertib (NSC754352), TP-3654 (NSC805149), carboplatin (NSC241240), KSQ-4279 (NSC840948), and staurosporine (NSC755774) were obtained from the National Cancer Institute (NCI) Developmental Therapeutics Program Chemical Repository (34). The FDA-approved anticancer drug set is available from the NCI Developmental Therapeutics Program. […] The stock solutions were prepared in dimethyl sulfoxide (DMSO, Sigma-Aldrich, St. Louis, MO, cat. D2650) at 800-fold the tested concentration and stored at -70 degrees C prior to their use. All drugs and investigational agents were tested over a range starting from a high concentration at or near the clinical Cmax and decreasing in half-log increments. If the clinical Cmax for an agent had not been determined, the highest concentration tested was 10 microM.
2.3 Cell Culture. All cells were maintained in an incubator at 37 degrees C and 5% CO2 with 95% humidity. The PDC lines were cultured according to standard operating procedures established by the NCI PDMR. All PDCs were thawed and cultured in Matrigel-coated flasks prepared with a working solution of 1X Ham's F-12 nutrient mix, without supplementation (Invitrogen, cat. 11765054), 100 U/mL penicillin-streptomycin (Invitrogen, cat. 15140122), and 2.5% Matrigel (Corning Inc., cat. 354248) for the first three passages. The 857933-349-R-J2-PDC line was cultured in 6C/Colon 1B media, which includes advanced DMEM/F-12 (Thermo Fisher Scientific, cat. 12634028), 10 mM HEPES (Thermo Fisher Scientific, cat. 15630080), 1X GlutaMAX supplement (Thermo Fisher Scientific, cat. 35050061), 0.1 mg/mL primocin (InvivoGen, cat. ant-pm-2), 10% defined fetal bovine serum, heat inactivated (HyClone Laboratories Inc., cat. SH30070.03HI), 50% L-WRN conditioned media (ATCC, cat. CRL-3276), 1.25 mM N-Acetyl-L-cysteine (Sigma-Aldrich, cat. A9165), 10 mM nicotinamide (Sigma-Aldrich, cat. N0636), 1X B-27 supplement (Thermo Fisher Scientific, cat. 17504044), 1X N-2 supplement (Thermo Fisher Scientific, cat. 17502048), 10 microM Y-27632 dihydrochloride (Tocris Bioscience, cat. 1254), and 50 ng/mL human EGF recombinant protein (Thermo Fisher Scientific, cat. PHG0311). The 485176-168-R4-J1-PDC line was cultured in Panc media, which includes all 6C/Colon 1B media components plus 100 ng/mL human FGF-10 (Thermo Fisher Scientific, cat. 100-26), 500 nM SB-431542 (Selleckchem, cat. S1067), and gastrin (Tocris, cat. 3006).
[…]
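Also: spheroids exposed to compounds for seven days.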

For `CC1COCCN1c1cc(C2(O)CC3CCC(C2)O3)c2cnn(-c3ccn[nH]3)c2n1` (stereo unspecified), the viability, T/C (compound 0.0316 µM) was 80.5% and 78% and 64.4%, the viability, T/C (compound 0.1 µM) was 43.7% and 56.4% and 38.6% and the viability, T/C (compound 0.316 µM) was 40% and 45.8% and 33.4%. The viability, T/C (compound 1 µM) was 29.1% and 26.3% and 24.6%, the viability, T/C (compound 3.16 µM) was 24.8% and 25.7% and 32.5% and the viability, T/C (compound 10 µM) was 13.2% and 19% and 15%. For the same compound, the IC50 (curve of compound) was 108 nM and 178 nM and 64.2 nM.
In the case of `CC(C)(O)C1CCC(Nc2ccc3ncc(-c4cccc(C(F)(F)F)c4)n3n2)CC1` (stereo unspecified), the viability, T/C (compound 0.0316 µM) is reported as 103% and 104% and 99%, the viability, T/C (compound 0.1 µM) is reported as 95.2% and 105% and 94.7% and the viability, T/C (compound 0.316 µM) is reported as 113% and 101% and 108%. For the same compound, the viability, T/C (compound 1 µM) was 61% and 80.7% and 57.2%, the viability, T/C (compound 3.16 µM) was 25% and 33.2% and 28.8% and the viability, T/C (compound 10 µM) was 48% and 40.7% and 36%. The IC50 (curve of compound) was 1680 nM and 2240 nM and 1390 nM.
For `COc1ccc([C@@H](O)c2cc(-c3ncnc4cc(N5CCOCC5)ccc34)c(F)cc2Cl)nn1` + Cc1[nH]c2ccc(F)cc2c1-c1nc2c3cccnc3c3ncccc3c2[nH]1, the IC50 (curve of first compound, second compound 0.0316 µM) was 2990 nM, the IC50 (curve of first compound, second compound 0.1 µM) was 2480 nM and the IC50 (curve of first compound, second compound 0.316 µM) was 4280 nM. The IC50 (curve of first compound, second compound 1 µM) was 3380 nM, the IC50 (curve of first compound, second compound 3.16 µM) was 2100 nM and the IC50 (curve of first compound, second compound 10 µM) was 1690 nM. It also gave a viability, T/C (second compound 0.0316 µM, first compound 0.0316 µM) of 100%, a viability, T/C (second compound 0.0316 µM, first compound 0.1 µM) of 89.6% and a viability, T/C (second compound 0.0316 µM, first compound 0.316 µM) of 68.3%. The viability, T/C (second compound 0.0316 µM, first compound 1 µM) was 64.6%, the viability, T/C (second compound 0.0316 µM, first compound 3.16 µM) was 49.1% and the viability, T/C (second compound 0.0316 µM, first compound 10 µM) was 38.6%. The viability, T/C (second compound 0.1 µM, first compound 0.0316 µM) was 79.7%, the viability, T/C (second compound 0.1 µM, first compound 0.1 µM) was 95.4% and the viability, T/C (second compound 0.1 µM, first compound 0.316 µM) was 92.7%. The viability, T/C (second compound 0.1 µM, first compound 1 µM) was 73%, the viability, T/C (second compound 0.1 µM, first compound 3.16 µM) was 44.5% and the viability, T/C (second compound 0.1 µM, first compound 10 µM) was 31.9%. For the same compound, the viability, T/C (second compound 0.316 µM, first compound 0.0316 µM) was 101%, the viability, T/C (second compound 0.316 µM, first compound 0.1 µM) was 115% and the viability, T/C (second compound 0.316 µM, first compound 0.316 µM) was 99.4%. For the same compound, the viability, T/C (second compound 0.316 µM, first compound 1 µM) was 66.8%, the viability, T/C (second compound 0.316 µM, first compound 3.16 µM) was 65.1% and the viability, T/C (second compound 0.316 µM, first compound 10 µM) was 28.4%. For the same compound, the viability, T/C (second compound 1 µM, first compound 0.0316 µM) was 81.7%, the viability, T/C (second compound 1 µM, first compound 0.1 µM) was 99.5% and the viability, T/C (second compound 1 µM, first compound 0.316 µM) was 83.9%. It also gave a viability, T/C (second compound 1 µM, first compound 1 µM) of 67.1%, a viability, T/C (second compound 1 µM, first compound 3.16 µM) of 54.1% and a viability, T/C (second compound 1 µM, first compound 10 µM) of 30.3%. For the same compound, the viability, T/C (second compound 3.16 µM, first compound 0.0316 µM) was 87.9%, the viability, T/C (second compound 3.16 µM, first compound 0.1 µM) was 76.8% and the viability, T/C (second compound 3.16 µM, first compound 0.316 µM) was 58%. The viability, T/C (second compound 3.16 µM, first compound 1 µM) was 73.5%, the viability, T/C (second compound 3.16 µM, first compound 3.16 µM) was 41.7% and the viability, T/C (second compound 3.16 µM, first compound 10 µM) was 19.3%. The viability, T/C (second compound 10 µM, first compound 0.0316 µM) was 48.7%, the viability, T/C (second compound 10 µM, first compound 0.1 µM) was 85.9% and the viability, T/C (second compound 10 µM, first compound 0.316 µM) was 58.9%. It also gave a viability, T/C (second compound 10 µM, first compound 1 µM) of 66.3%, a viability, T/C (second compound 10 µM, first compound 3.16 µM) of 32.3% and a viability, T/C (second compound 10 µM, first compound 10 µM) of 15.8%.
